Earlier results in patent publication US20140323444A1, “ANTI-INFLAMMATORY AND ANTIDIABETIC AGENTS” (priority 2013, published 2014).

Key:
[1] = system: patients with type 2 diabetes
prostaglandin synthesis = conditions: in vivo; compared with aspirin and indomethacin
platelet aggregation = conditions: unlike aspirin
[2] = compared with placebo; in contrast to aspirin

Q: What does the source list for `O=C(Oc1ccccc1C(=O)O)c1ccccc1O` [salsalate, 2-(2-hydroxybenzoyl)oxybenzoic acid]?
A: adiponectin concentrations ([1]; in vivo): increase adiponectin concentrations; circulating insulin ([1]; in vivo): increase circulating insulin; glucose utilization ([1]; in vivo): improve glucose utilization; C-reactive protein ([1]; patients with type 2 diabetes): lowers; HbA1c levels ([1]; patients with type 2 diabetes): lowers; blood glucose ([1]; patients with type 2 diabetes): lowers; free fatty acid ([1]; patients with type 2 diabetes): lowers; triglycerides ([1]; patients with type 2 diabetes): lowers; anti-inflammatory activity (prostaglandin synthesis): equivalent to aspirin and indomethacin; inhibition of platelet aggregation (platelet aggregation): does not inhibit platelet aggregation; fecal gastrointestinal blood loss [2]: no greater fecal gastrointestinal blood loss than placebo
